Literature values, collected in publication PMC5618191 (Toxins, 2017).

Design: method as in PMID 26892719
Conditions: after three days of treatment; cited from earlier work

CC(C)[C@H]1C(=O)O[C@H](C(C)C)C(=O)N(C)[C@@H](C(C)C)C(=O)O[C@H](C(C)C)C(=O)N(C)[C@@H](C(C)C)C(=O)O[C@H](C(C)C)C(=O)N1C [ENN B, enniatin B]
Metabolites in mice: three phase I metabolites
